Laboratory results: the supplement of paper PMC10307832

Experiments:
Experiment in all cases: relative viability (nuclei count vs DMSO), 5 days (fraction); higher = more cells survive
Gemcitabine + Crizotinib = compound: Nc1ccn([C@@H]2O[C@H](CO)[C@@H](O)C2(F)F)c(=O)n1 [Gemcitabine] + C[C@@H](Oc1cc(-c2cnn(C3CCNCC3)c2)cnc1N)c1c(Cl)ccc(F)c1Cl [Crizotinib] (partner 1 µM)
Method in brief: (§1)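 Lung cancer cell lines in 1536-well plates were dosed by pin tool the day after seeding, either with one drug alone or with a fixed anchor-drug dose plus five library-drug doses (not always all listed) in √10 steps. After 5 days, cells were fixed and their nuclei stained in one step (final 0.05% Triton X-100, 1% formaldehyde, 1 ug/ml Hoechst), then counted on 4× images. Relative viability is the nuclei count in treated wells divided by that in vehicle wells. Values are medians of duplicate plates.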

Gemcitabine + Phenformin = compound: Nc1ccn([C@@H]2O[C@H](CO)[C@@H](O)C2(F)F)c(=O)n1 [Gemcitabine] + N=C(N)NC(=N)NCCc1ccccc1 [Phenformin] (partner 250 µM)
Method in brief: as §1

Gemcitabine + Navitoclax = compound: Nc1ccn([C@@H]2O[C@H](CO)[C@@H](O)C2(F)F)c(=O)n1 [Gemcitabine] + CC1(C)CCC(c2ccc(Cl)cc2)=C(CN2CCN(c3ccc(C(=O)NS(=O)(=O)c4ccc(N[C@H](CCN5CCOCC5)CSc5ccccc5)c(S(=O)(=O)C(F)(F)F)c4)cc3)CC2)C1 [Navitoclax] (partner 0.5 µM)
Method in brief: as §1

Gemcitabine + Decitabine = compound: Nc1ccn([C@@H]2O[C@H](CO)[C@@H](O)C2(F)F)c(=O)n1 [Gemcitabine] + Nc1ncn([C@H]2C[C@H](O)[C@@H](CO)O2)c(=O)n1 [Decitabine] (partner 2 µM)
Method in brief: as §1

Cell Line	relative viability (Gemcitabine + Crizotinib; first compound 0.001 µM)	relative viability (Gemcitabine + Crizotinib; first compound 0.003162 µM)	relative viability (Gemcitabine + Crizotinib; first compound 0.01 µM)	relative viability (Gemcitabine + Crizotinib; first compound 0.03162 µM)	relative viability (Gemcitabine + Crizotinib; first compound 0.1 µM)	relative viability (Gemcitabine + Phenformin; first compound 0.001 µM)	relative viability (Gemcitabine + Phenformin; first compound 0.003162 µM)	relative viability (Gemcitabine + Phenformin; first compound 0.01 µM)	relative viability (Gemcitabine + Phenformin; first compound 0.03162 µM)	relative viability (Gemcitabine + Phenformin; first compound 0.1 µM)	relative viability (Gemcitabine + Navitoclax; first compound 0.001 µM)	relative viability (Gemcitabine + Navitoclax; first compound 0.003162 µM)	relative viability (Gemcitabine + Navitoclax; first compound 0.01 µM)	relative viability (Gemcitabine + Navitoclax; first compound 0.03162 µM)	relative viability (Gemcitabine + Navitoclax; first compound 0.1 µM)	relative viability (Gemcitabine + Decitabine; first compound 0.001 µM)	relative viability (Gemcitabine + Decitabine; first compound 0.003162 µM)	relative viability (Gemcitabine + Decitabine; first compound 0.01 µM)	relative viability (Gemcitabine + Decitabine; first compound 0.03162 µM)	relative viability (Gemcitabine + Decitabine; first compound 0.1 µM)
201T	1.04	1.01	0.975	0.464	0.329	0.43	0.455	0.427	0.334	0.263	1.17	1.24	1.24	1.19	0.494	0.83	0.87	0.906	0.776	0.446
A549	0.858	0.377	0.229	0.0341	0.0206	0.158	0.0726	0.0184	0.0201	0.0216	1.21	1.1	0.0375	0.0126	0.0108	0.292	0.274	0.0559	0.0266	0.0227
A-427	0.984	0.764	0.503	0.124	0.106	0.328	0.273	0.16	0.178	0.117	0.918	0.907	0.719	0.189	0.124	0.629	0.546	0.463	0.342	0.273
ABC-1	1.2	1.4	0.829	0.342	0.114	0.197	–	0.236	0.186	0.212	–	–	–	–	–	–	0.798	1.07	0.497	0.436
BEN	0.874	0.563	0.139	0.113	0.09	0.262	0.23	0.243	0.222	0.202	0.0578	0.0698	0.0605	0.0528	0.0444	0.698	0.456	0.413	0.249	0.257
CAL-12T	0.684	0.745	0.662	0.227	0.104	0.587	0.335	0.437	0.226	0.122	1.14	1.1	0.845	0.164	0.141	–	–	–	–	–
COR-L23	0.72	0.565	0.211	0.0732	0.0754	0.432	0.368	0.193	0.1	0.0829	0.951	0.96	0.381	0.0768	0.0895	0.423	0.463	0.443	0.217	0.146
COR-L 105	1.09	0.825	0.577	0.286	0.197	0.563	0.48	0.308	0.271	0.203	0.792	0.581	0.544	0.291	0.263	0.68	0.596	0.46	0.37	0.3
Calu-6	0.784	0.585	0.279	0.145	0.123	–	–	–	–	–	0.789	0.317	0.111	0.0922	0.0731	–	–	–	–	–
ChaGo-K-1	1.12	0.961	0.578	0.36	0.314	0.444	0.378	0.204	0.17	0.159	0.939	0.443	0.361	0.26	0.266	0.517	0.467	0.337	0.205	0.187
EBC-1	0.192	0.166	0.161	0.134	0.159	–	–	–	–	–	0.268	0.187	0.136	0.19	0.126	–	–	–	–	–
EKVX	1	0.872	0.387	0.169	0.159	0.233	0.194	0.119	0.132	0.109	0.93	0.89	0.0897	0.133	0.0934	0.3	0.256	0.18	0.193	0.14
EMC-BAC-2	0.778	0.768	0.594	0.14	0.149	0.566	0.525	0.425	0.205	0.204	1.21	1.17	1.11	0.147	0.136	0.965	0.936	0.726	0.356	0.262
EPLC-272H	0.766	0.847	0.196	0.175	0.0681	0.348	0.324	0.174	0.158	0.0709	1.14	0.953	0.395	0.0915	0.07	0.389	0.353	0.305	0.224	0.0962
H3255	0.97	0.439	0.63	0.167	0.176	0.352	0.266	0.31	0.368	0.302	0.558	0.404	0.135	0.121	0.106	0.884	0.374	0.42	0.238	0.15
HARA	0.975	1.02	1.02	0.3	0.124	0.498	0.556	0.445	0.222	0.0544	1.15	1.17	1.1	0.289	0.0674	0.593	0.702	0.373	0.279	0.131
HCC-15	0.929	0.819	0.79	0.192	0.0758	0.47	0.492	0.331	0.144	0.0968	0.718	0.702	0.69	0.441	0.0936	0.622	0.67	0.612	0.226	0.107

Cell Line	relative viability (Gemcitabine + Crizotinib; first compound 0.001 µM)	relative viability (Gemcitabine + Crizotinib; first compound 0.003162 µM)	relative viability (Gemcitabine + Crizotinib; first compound 0.01 µM)	relative viability (Gemcitabine + Crizotinib; first compound 0.03162 µM)	relative viability (Gemcitabine + Crizotinib; first compound 0.1 µM)	relative viability (Gemcitabine + Phenformin; first compound 0.001 µM)	relative viability (Gemcitabine + Phenformin; first compound 0.003162 µM)	relative viability (Gemcitabine + Phenformin; first compound 0.01 µM)	relative viability (Gemcitabine + Phenformin; first compound 0.03162 µM)	relative viability (Gemcitabine + Phenformin; first compound 0.1 µM)	relative viability (Gemcitabine + Navitoclax; first compound 0.001 µM)	relative viability (Gemcitabine + Navitoclax; first compound 0.003162 µM)	relative viability (Gemcitabine + Navitoclax; first compound 0.01 µM)	relative viability (Gemcitabine + Navitoclax; first compound 0.03162 µM)	relative viability (Gemcitabine + Navitoclax; first compound 0.1 µM)	relative viability (Gemcitabine + Decitabine; first compound 0.001 µM)	relative viability (Gemcitabine + Decitabine; first compound 0.003162 µM)	relative viability (Gemcitabine + Decitabine; first compound 0.01 µM)	relative viability (Gemcitabine + Decitabine; first compound 0.03162 µM)	relative viability (Gemcitabine + Decitabine; first compound 0.1 µM)
HCC-44	0.825	0.756	0.614	0.201	0.154	0.156	0.139	0.101	0.098	0.102	0.97	0.993	0.893	0.173	0.154	0.936	0.918	0.901	0.845	0.738
HCC-78	0.271	0.26	0.167	0.146	0.15	0.581	0.538	0.285	0.209	0.233	0.795	0.428	0.191	0.119	0.104	0.622	0.651	0.367	0.343	0.268
IA-LM	–	0.615	0.254	0.0992	0.0456	–	–	–	–	–	0.896	0.796	0.409	0.0336	0.0251	–	–	–	–	–
LCLC-103H	1.12	1.07	0.934	0.997	0.272	0.321	0.318	0.279	0.198	0.193	–	–	–	–	–	0.694	0.738	0.715	0.674	0.57
NCI-H358	0.494	0.228	0.188	0.166	0.135	0.291	0.22	0.101	0.0745	0.0748	–	–	–	–	–	0.188	0.171	0.151	0.102	0.105
NCI-H522	–	–	–	–	–	0.653	0.524	0.47	0.396	0.384	–	–	–	–	–	0.653	0.577	0.502	0.352	0.342
NCI-H650	0.578	0.322	0.176	0.177	0.167	0.387	0.255	0.202	0.158	0.168	–	–	–	–	–	0.243	0.237	0.164	0.175	0.153
NCI-H661	1.09	0.983	0.856	0.333	0.285	0.282	0.263	0.231	0.197	0.226	–	–	–	–	–	0.569	0.582	0.465	0.346	0.237
NCI-H1299	1.03	0.977	0.973	0.995	0.983	–	–	–	–	–	1.02	1.08	1.04	1.02	1.06	–	–	–	–	–
NCI-H1395	–	–	–	–	–	0.403	0.417	0.321	0.315	0.318	1.05	0.859	0.525	0.61	0.414	0.736	0.592	0.47	0.422	0.365
NCI-H1563	0.861	0.993	0.917	0.635	0.411	0.66	0.605	0.53	0.494	0.497	–	–	–	–	–	–	–	–	–	–
NCI-H1648	–	–	–	–	–	–	–	–	–	–	–	–	–	–	–	0.515	0.443	0.442	0.315	0.293
NCI-H1703	0.588	0.208	0.11	0.125	0.0932	–	–	–	–	–	0.73	0.178	0.141	0.118	0.102	–	–	–	–	–
NCI-H1793	–	–	–	–	–	0.38	0.324	0.223	0.166	0.13	0.488	0.474	0.169	0.216	0.151	0.512	0.433	0.271	0.156	0.162
NCI-H2228	0.615	0.326	0.233	0.141	0.166	0.304	0.168	0.126	0.111	0.0895	1.13	0.407	0.203	0.0863	0.0652	–	–	–	–	–
NCI-H2342	–	–	–	–	–	0.477	0.426	0.539	0.281	0.315	–	–	–	–	–	0.694	0.65	0.532	0.537	0.337
SW 900	–	–	–	–	–	0.654	0.181	0.0793	0.0687	0.0927	–	–	–	–	–	0.325	0.372	0.267	0.148	0.169
